Test results reported in patent publication US20110263564A1, “PYRIDINE, BICYCLIC PYRIDINE AND RELATED ANALOGS AS SIRTUIN MODULATORS” (Sirtris Pharmaceuticals, Inc., priority 2008, published 2011).

Target: T1, SIRT1 (Homo sapiens, UniProt Q96EB6)
T1 sequence (Q96EB6 1-747): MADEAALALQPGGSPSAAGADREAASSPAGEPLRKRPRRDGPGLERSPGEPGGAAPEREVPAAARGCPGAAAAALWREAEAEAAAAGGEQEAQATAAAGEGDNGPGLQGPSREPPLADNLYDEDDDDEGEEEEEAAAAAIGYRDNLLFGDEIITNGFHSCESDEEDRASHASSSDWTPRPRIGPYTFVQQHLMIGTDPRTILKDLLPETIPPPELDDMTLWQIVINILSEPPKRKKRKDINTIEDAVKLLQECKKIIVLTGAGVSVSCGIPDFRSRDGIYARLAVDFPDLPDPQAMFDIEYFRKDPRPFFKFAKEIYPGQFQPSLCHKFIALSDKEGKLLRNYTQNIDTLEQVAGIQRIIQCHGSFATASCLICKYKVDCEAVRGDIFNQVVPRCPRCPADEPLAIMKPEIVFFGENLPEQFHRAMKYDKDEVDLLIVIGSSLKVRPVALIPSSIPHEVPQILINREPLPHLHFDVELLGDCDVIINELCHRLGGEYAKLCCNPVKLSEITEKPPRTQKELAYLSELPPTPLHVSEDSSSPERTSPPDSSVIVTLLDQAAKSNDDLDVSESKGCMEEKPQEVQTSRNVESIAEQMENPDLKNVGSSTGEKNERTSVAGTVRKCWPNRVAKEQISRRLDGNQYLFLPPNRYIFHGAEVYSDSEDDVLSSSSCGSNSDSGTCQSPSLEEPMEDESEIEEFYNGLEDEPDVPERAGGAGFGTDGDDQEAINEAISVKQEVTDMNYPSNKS
Experiment: Mass spectrometry based assay of SIRT1 activity (deacetylation of a p53-based acetylated peptide)
Type: biochemical
Conditions: 10 nM SIRT1, 0.5 μM peptide substrate, 120 μM βNAD+, 25 minutes at 25° C.; for Emax: read-out: % FOLD ACT. (percent maximum fold activation)
From the text: A mass spectrometry based assay was used to identify modulators of SIRT1 activity. The mass spectrometry based assay utilizes a peptide having 20 amino acid residues as follows: Ac-EE-K(biotin)-GQSTSSHSK(Ac)NleSTEG-K(5TMR)-EE-NH2 (SEQ ID NO: 1) wherein K(Ac) is an acetylated lysine residue and Nle is a norleucine. The peptide is labeled with the fluorophore 5TMR (excitation 540 nm/emission 580 nm) at the C-terminus. The sequence of the peptide substrate is based on p53 with several modifications. In addition, the methionine residue naturally present in the sequence was replaced with the norleucine because the methionine may be susceptible to oxidation during synthesis and purification.
The mass spectrometry assay is conducted as follows: 0.5 μM peptide substrate and 120 μM βNAD^+ is incubated with 10 nM SIRT1 for 25 minutes at 25° C. in a reaction buffer (50 mM Tris-acetate pH 8, 137 mM NaCl, 2.7 mM KCl, 1 mM MgCl2, 5 mM DTT, 0.05% BSA). Test compounds may be added to the reaction as described above. […] After the 25 minute incubation with SIRT1, 10 μL of 10% formic acid is added to stop the reaction. Reactions are sealed and frozen for later mass spec analysis. Determination of the mass of the substrate peptide allows for precise determination of the degree of acetylation (i.e. starting material) as compared to deacetylated peptide (product).
A control for inhibition of sirtuin activity is conducted by adding 1 μL of 500 mM nicotinamide as a negative control at the start of the reaction (e.g., permits determination of maximum sirtuin inhibition). A control for activation of sirtuin activity is conducted using 10 nM of sirtuin protein, with 1 μL of DMSO in place of compound, to determine the amount of deacetylation of the substrate at a given timepoint within the linear range of the assay. This timepoint is the same as that used for test compounds and, within the linear range, the endpoint represents a change in velocity.
For the above assay, SIRT1 protein was expressed and purified as follows. […] The protein was expressed by induction with 1 mM IPTG as an N-terminal His-tag fusion protein at 18° C. overnight and harvested at 30,000×g. Cells were lysed with lysozyme in lysis buffer (50 mM Tris-HCl, 2 mM Tris[2-carboxyethyl]phosphine (TCEP), 10 μM ZnCl2, 200 mM NaCl) and further treated with sonication for 10 min for complete lysis. The protein was purified over a Ni-NTA column (Amersham) and fractions containing pure protein were pooled, concentrated and run over a sizing column (Sephadex S200 26/60 global). The peak containing soluble protein was collected and run on an Ion-exchange column (MonoQ). Gradient elution (200 mM-500 mM NaCl) yielded pure protein. This protein was concentrated and dialyzed against dialysis buffer (20 mM Tris-HCl, 2 mM TCEP) overnight. The protein was aliquoted and frozen at −80° C. until further use.
Sirtuin modulating compounds that activated SIRT1 were identified using the assay described above and are shown below in Table 1 for compounds of Formula (III)). The EC1.5 values represent the concentration of test compounds that result in 150% activation of SIRT1. The EC1.5 values for the activating compounds in Table 1 are represented by A (EC1.5<10.0 μM), B (EC1.5 10-25 μM), C (EC1.5>25 μM). The percent maximum fold activation is represented by A (Fold activation>200%) or B (Fold Activation<200%); “NT” means not tested; “ND” mean not determinable.

Row | EC1.5 (concentration of test compound that results in 150% activation of SIRT1) | Emax [%] | SMILES
1 | C (EC1.5>25 μM) |  | CC(NC(=O)c1ccccc1)c1cccc(-c2ccccc2)n1 (stereo not drawn) [Compound 217]
2 | C (EC1.5>25 μM) |  | CC(NC(=O)c1cccnc1)c1cccc(-c2cccc(OC(F)(F)F)c2)n1 (stereo not drawn) [Compound 218]
3 | C (EC1.5>25 μM) |  | CC(NC(=O)c1cccc(CN2CCCC2)n1)c1cccc(-c2cccc(C(F)(F)F)c2)n1 (stereo not drawn) [Compound 219]
4 | C (EC1.5>25 μM) |  | CC(NC(=O)c1cccc(CN2CCCC2)n1)c1cccc(-c2cccnc2)n1 (stereo not drawn) [Compound 220]
5 | C (EC1.5>25 μM) |  | CC(C(=O)Nc1nccs1)c1cccc(-c2cccc(C(F)(F)F)c2)n1 (stereo not drawn) [Compound 221]
6 | A (EC1.5<10.0 μM) | > 200 | O=C(NC1CCOc2ccc(-c3cccc(C(F)(F)F)c3)nc21)c1cccc(N2CCOCC2)n1 (stereo not drawn) [Compound 222, 6-morpholino-N-(6-(3-(trifluoromethyl)phenyl)-3,4-dihydro-2H-pyrano[3,2-b]pyridin-4-yl)picolinamide]
7 | C (EC1.5>25 μM) |  | O=C(NC1CCOc2ccc(-c3cccc(C(F)(F)F)c3)nc21)c1ccnc(CN2CCOCC2)c1 (stereo not drawn) [Compound 223]
8 | C (EC1.5>25 μM) |  | O=C(NC1CCOc2ccc(-c3cccc(C(F)(F)F)c3)nc21)c1cnccn1 (stereo not drawn) [Compound 224]
9 | C (EC1.5>25 μM) |  | O=C(NC1CCCc2ccc(-c3cccc(C(F)(F)F)c3)nc21)c1ccc(F)c(Cl)c1 (stereo not drawn) [Compound 225]
10 | C (EC1.5>25 μM) |  | O=C(NC1CCCc2ccc(-c3cccc(C(F)(F)F)c3)nc21)c1cccc2c1OC(F)(F)O2 (stereo not drawn) [Compound 226]
11 | A (EC1.5<10.0 μM) | > 200 | Cc1cc(C(=O)NC2CCCc3ccc(-c4cccc(C(F)(F)F)c4)nc32)n(C)n1 (stereo not drawn) [Compound 227]
12 | B (EC1.5 10-25 μM) | < 200 | O=C(NC1CCCc2ccc(-c3cccc(C(F)(F)F)c3)nc21)c1cc[nH]n1 (stereo not drawn) [Compound 229]
13 | C (EC1.5>25 μM) |  | O=C(NC1CCCc2ccc(-c3cccc(C(F)(F)F)c3)nc21)c1ccno1 (stereo not drawn) [Compound 230]
14 | A (EC1.5<10.0 μM) | > 200 | O=C(NC1CCCc2ccc(-c3cccc(C(F)(F)F)c3)nc21)c1ccccn1 (stereo not drawn) [Compound 231]
15 | C (EC1.5>25 μM) | < 200 | O=C(NC1CCCc2ccc(-c3cccc(C(F)(F)F)c3)nc21)c1cccnc1 (stereo not drawn) [Compound 232]
16 | C (EC1.5>25 μM) |  | O=C(NC1CCCc2ccc(-c3cccc(C(F)(F)F)c3)nc21)c1cncnc1 (stereo not drawn) [Compound 233]
17 | A (EC1.5<10.0 μM) | > 200 | Cc1cnc(C(=O)NC2CCCc3ccc(-c4cccc(C(F)(F)F)c4)nc32)cn1 (stereo not drawn) [Compound 234]
18 | A (EC1.5<10.0 μM) | < 200 | O=C(NC1CCCc2ccc(-c3cccc(C(F)(F)F)c3)nc21)c1cccc(N2CCCC2)n1 (stereo not drawn) [Compound 235]

The remaining lines, values behind:

Row | SMILES | EC1.5 (concentration of test compound that results in 150% activation of SIRT1) | Emax [%]
19 | Cc1cncc(-c2ccc3c(n2)C(NC(=O)c2cnccn2)CCC3)c1 (stereo not drawn) [Compound 200, N-(2-(5-methylpyridin-3-yl)-5,6,7,8-tetrahydroquinolin-8-yl)pyrazine-2-carboxamide] | C (EC1.5>25 μM) | 
20 | CC(C)c1cccc(-c2cccc(C(C)NC(=O)c3cscn3)n2)c1 (stereo not drawn) [Compound 201] | C (EC1.5>25 μM) | < 200
21 | CC(C)c1cccc(-c2cccc(C(C)NC(=O)c3cnccn3)n2)c1 (stereo not drawn) [Compound 202] | C (EC1.5>25 μM) | < 200
22 | CC(NC(=O)c1cscn1)c1cccc(-c2cccc(C(F)(F)F)c2)n1 (stereo not drawn) [Compound 203] | B (EC1.5 10-25 μM) | < 200
23 | CC(NC(=O)c1cnccn1)c1cccc(-c2cccc(C(F)(F)F)c2)n1 (stereo not drawn) [Compound 204, N-(1-(6-(3-(trifluoromethyl)phenyl)pyridin-2-yl)ethyl)pyrazine-2-carboxamide] | B (EC1.5 10-25 μM) | > 200
24 | O=C(NC1CCCc2ccc(-c3cccc(C(F)(F)F)c3)nc21)c1cscn1 (stereo not drawn) [Compound 205] | C (EC1.5>25 μM) | < 200
25 | O=C(NC1CCCc2ccc(-c3cccc(C(F)(F)F)c3)nc21)c1cnccn1 (stereo not drawn) [Compound 206, N-(2-(3-(trifluoromethyl)phenyl)-5,6,7,8-tetrahydroquinolin-8-yl)pyrazine-2-carboxamide] | A (EC1.5<10.0 μM) | > 200
26 | CC(NC(=O)c1cnccn1)c1cccc(-c2cccc(OC(F)(F)F)c2)n1 (stereo not drawn) [Compound 207] | B (EC1.5 10-25 μM) | > 200
27 | CC(C(=O)Nc1cccnc1)c1cccc(-c2cccc(C(F)(F)F)c2)n1 (stereo not drawn) [Compound 210] | C (EC1.5>25 μM) | 
28 | CC(NC(=O)c1cnccn1)c1cccc(-c2ccccc2)n1 (stereo not drawn) [Compound 211] | C (EC1.5>25 μM) | 
29 | CC(NC(=O)c1cccnc1)c1cccc(-c2cccc(C(F)(F)F)c2)n1 (stereo not drawn) [Compound 212] | A (EC1.5<10.0 μM) | > 200
30 | CC(NC(=O)c1cnccn1)c1cccc(-c2cccnc2)n1 (stereo not drawn) [Compound 213] | C (EC1.5>25 μM) | 
31 | CC(C(=O)Nc1cnccn1)c1cccc(-c2cccc(C(F)(F)F)c2)n1 (stereo not drawn) [Compound 214, N-2-pyrazinyl-2-{6-[3-(trifluoromethyl)phenyl]-2-pyridinyl}propanamide] | C (EC1.5>25 μM) | 
32 | CC(NC(=O)c1ccccc1)c1cccc(-c2cccc(C(F)(F)F)c2)n1 (stereo not drawn) [Compound 215] | C (EC1.5>25 μM) | 
33 | CC(NC(=O)c1cccnc1)c1cccc(-c2cccc(C(F)(F)F)c2)n1 (stereo not drawn) [Compound 216] | C (EC1.5>25 μM) | 
